Data on 1 compound can be found in patent US20110274679A1, “Compositions and Methods of SIRT Activation” (VDF FutureCeuticals, Inc., priority 2008, published 2011).

The experiment relates to SIRT. Kind of experiment: in vitro SIRT activity in treated cells, lysed after treatment (BioMol SIRT Activity Assay kit). The class given is cell-based. The conditions noted are these: depending on the cell line; positive control. The text has this:
Among other suitable combinations, one exemplary SIRT activating combination of B-vitamins was formulated that included a combination of vitamin B2, B1, B3, B6, B12, and B5. Using that combination, HeLa cells were separately treated in vitro for 4 hrs, along with a reference compound (here: resveratrol) as positive control, as well as individually with the respective above vitamins at a total concentrations of 0.1% (wt/vol) of culture medium. To measure SIRT activation, the cells were lysed after treatment and SIRT activity was determined using a commercially available SIRT Activity Assay kit (BioMol, Inc.; Catalog #KI-104).
Moreover, in vitro activation with the known SIRT activator resveratrol was, depending on the cell line, between about 15-120% of untreated control, making the SIRT activation with the vitamin compounds even more remarkable.
In an experiment similar to that above, FIG. 2 depicts further combinations for selected vitamin B compounds in which the columns show the results for A (Riboflavin, vitamin B2), B (Thiamine, vitamin B1), C (Niacinamide, vitamin B3), D (Pyridoxine, vitamin B6), E (Cyanocobolamin, vitamin B12), F (Ca-Panthotenate, vitamin B5), G=Blend of A-F (VSIRT), H (Pyrodoxine, vitamin B6 plus Cobalamin, vitamin B12), 0.05% each, and I (H plus Riboflavin, vitamin B2) (0.033% each). […]

Consider `Oc1ccc(C=Cc2cc(O)cc(O)c2)cc1` [resveratrol], for which the “in vitro activation of SIRT” value is 15-120 % of untreated control.
